According to article PMC6407917, “Identification of GSK3186899/DDD853651 as a Preclinical Development Candidate for the Treatment of Visceral Leishmaniasis” (Journal of Medicinal Chemistry, 2018):

How the values were obtained:
Test in all cases: biochemical
Parameters in all cases: species or system HEK293/K-562/placenta mixed human extract; Kinobeads chemoproteomic competition binding, quantified by TMT LC-MS/MS, dose response up to 20 uM
LRRK2 = LRRK2 (Homo sapiens, UniProt Q5S007)
MKNK2 = MKNK2 (Homo sapiens, UniProt Q9HBH9)
MAP4K3 = MAP4K3 (Homo sapiens, UniProt Q8IVH8)
STK39 = STK39 (Homo sapiens, UniProt Q9UEW8)
RIPK2 = RIPK2 (Homo sapiens, UniProt O43353)
WEE1 = WEE1 (Homo sapiens, UniProt P30291)
IRAK4 = IRAK4 (Homo sapiens, UniProt Q9NWZ3)
MAP3K3 = MAP3K3 (Homo sapiens, UniProt Q99759)
NEK7 = NEK7 (Homo sapiens, UniProt Q8TDX7)
DDR1 = DDR1 (Homo sapiens, UniProt Q08345)
CDC42BPG = CDC42BPG (Homo sapiens, UniProt Q6DT37)
PDIK1L = PDIK1L (Homo sapiens, UniProt Q8N165)
PRKG1 = PRKG1 (Homo sapiens, UniProt Q13976)
STK38 = STK38 (Homo sapiens, UniProt Q15208)
NLK = NLK (Homo sapiens, UniProt Q9UBE8)
BRSK2 = BRSK2 (Homo sapiens, UniProt Q8IWQ3)
MAPK14 = MAPK14 (Homo sapiens, UniProt Q16539)
CLK1 = CLK1 (Homo sapiens, UniProt P49759)
RPS6KA3 = RPS6KA3 (Homo sapiens, UniProt P51812)
PAK4 = PAK4 (Homo sapiens, UniProt O96013)
MAPK8 = MAPK8 (Homo sapiens, UniProt P45983)
Chain of MAPK8 (P45983 whole entry): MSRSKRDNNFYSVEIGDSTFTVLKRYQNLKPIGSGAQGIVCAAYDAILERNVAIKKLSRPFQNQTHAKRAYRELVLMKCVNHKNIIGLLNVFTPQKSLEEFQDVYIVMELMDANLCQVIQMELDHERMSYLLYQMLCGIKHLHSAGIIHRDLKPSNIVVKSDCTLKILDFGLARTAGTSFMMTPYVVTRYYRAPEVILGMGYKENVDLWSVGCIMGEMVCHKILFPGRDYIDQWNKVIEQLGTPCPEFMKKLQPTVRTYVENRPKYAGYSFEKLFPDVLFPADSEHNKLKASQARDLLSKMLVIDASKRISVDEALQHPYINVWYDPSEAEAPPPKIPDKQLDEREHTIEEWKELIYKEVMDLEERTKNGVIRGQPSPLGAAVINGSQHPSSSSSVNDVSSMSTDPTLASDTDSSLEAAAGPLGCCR

Chain of RPS6KA3 (P51812 whole entry): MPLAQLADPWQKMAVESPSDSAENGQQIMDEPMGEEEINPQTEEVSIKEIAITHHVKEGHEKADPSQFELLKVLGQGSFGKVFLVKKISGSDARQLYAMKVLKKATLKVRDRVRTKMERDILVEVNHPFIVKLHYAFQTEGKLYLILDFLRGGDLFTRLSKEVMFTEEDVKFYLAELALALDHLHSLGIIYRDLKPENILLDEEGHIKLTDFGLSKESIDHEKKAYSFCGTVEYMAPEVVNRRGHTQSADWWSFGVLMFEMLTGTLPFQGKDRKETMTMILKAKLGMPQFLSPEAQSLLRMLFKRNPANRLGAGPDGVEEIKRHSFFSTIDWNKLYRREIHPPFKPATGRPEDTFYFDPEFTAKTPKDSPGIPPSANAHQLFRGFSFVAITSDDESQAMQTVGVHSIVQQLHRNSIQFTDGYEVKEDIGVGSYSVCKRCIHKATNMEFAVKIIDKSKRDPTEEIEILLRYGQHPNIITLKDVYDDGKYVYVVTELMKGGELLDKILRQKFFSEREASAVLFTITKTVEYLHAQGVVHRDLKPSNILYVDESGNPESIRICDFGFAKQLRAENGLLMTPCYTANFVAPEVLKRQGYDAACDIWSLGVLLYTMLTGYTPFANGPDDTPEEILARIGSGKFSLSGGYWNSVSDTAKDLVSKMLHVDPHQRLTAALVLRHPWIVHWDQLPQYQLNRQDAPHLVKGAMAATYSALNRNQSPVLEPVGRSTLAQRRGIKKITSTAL
Chain of IRAK4 (Q9NWZ3 whole entry): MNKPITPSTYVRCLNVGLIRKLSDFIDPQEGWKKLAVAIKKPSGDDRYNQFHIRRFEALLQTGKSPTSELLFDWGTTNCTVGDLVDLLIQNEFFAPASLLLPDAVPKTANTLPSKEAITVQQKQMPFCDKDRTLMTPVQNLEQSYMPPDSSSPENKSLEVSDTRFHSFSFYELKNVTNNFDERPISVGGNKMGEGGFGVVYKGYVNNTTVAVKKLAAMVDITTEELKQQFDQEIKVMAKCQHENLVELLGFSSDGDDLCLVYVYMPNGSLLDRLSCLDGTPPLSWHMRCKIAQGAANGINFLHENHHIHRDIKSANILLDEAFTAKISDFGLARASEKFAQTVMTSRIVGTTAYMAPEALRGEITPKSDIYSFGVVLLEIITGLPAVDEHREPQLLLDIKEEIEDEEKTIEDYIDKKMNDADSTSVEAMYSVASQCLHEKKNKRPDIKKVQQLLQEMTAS
Chain of NLK (Q9UBE8 whole entry): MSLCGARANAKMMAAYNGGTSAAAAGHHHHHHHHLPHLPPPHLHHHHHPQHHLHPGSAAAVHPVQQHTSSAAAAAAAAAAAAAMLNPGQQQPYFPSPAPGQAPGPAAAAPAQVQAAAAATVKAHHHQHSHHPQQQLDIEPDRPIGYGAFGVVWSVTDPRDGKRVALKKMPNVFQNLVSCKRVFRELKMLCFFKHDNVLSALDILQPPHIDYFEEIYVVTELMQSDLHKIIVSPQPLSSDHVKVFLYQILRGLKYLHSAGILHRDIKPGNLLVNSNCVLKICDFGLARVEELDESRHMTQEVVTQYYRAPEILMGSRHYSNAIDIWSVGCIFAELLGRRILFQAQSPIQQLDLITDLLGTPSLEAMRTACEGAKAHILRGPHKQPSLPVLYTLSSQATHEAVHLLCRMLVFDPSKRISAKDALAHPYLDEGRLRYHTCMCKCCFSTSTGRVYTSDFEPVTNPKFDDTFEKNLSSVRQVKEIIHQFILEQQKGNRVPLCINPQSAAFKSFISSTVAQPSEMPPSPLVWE
Chain of STK38 (Q15208 whole entry): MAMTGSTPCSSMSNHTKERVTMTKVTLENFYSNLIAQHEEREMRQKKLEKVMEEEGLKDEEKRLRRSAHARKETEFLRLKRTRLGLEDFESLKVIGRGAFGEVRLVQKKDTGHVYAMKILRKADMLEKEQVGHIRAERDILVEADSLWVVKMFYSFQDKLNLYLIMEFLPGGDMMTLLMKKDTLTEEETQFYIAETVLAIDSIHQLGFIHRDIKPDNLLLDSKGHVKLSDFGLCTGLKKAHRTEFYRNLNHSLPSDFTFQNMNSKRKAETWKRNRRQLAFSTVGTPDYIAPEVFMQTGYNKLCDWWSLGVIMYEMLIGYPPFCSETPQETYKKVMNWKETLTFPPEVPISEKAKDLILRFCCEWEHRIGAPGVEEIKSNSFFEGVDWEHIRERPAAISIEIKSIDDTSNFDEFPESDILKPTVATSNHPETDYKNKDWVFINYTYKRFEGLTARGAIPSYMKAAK
Chain of PDIK1L (Q8N165 whole entry): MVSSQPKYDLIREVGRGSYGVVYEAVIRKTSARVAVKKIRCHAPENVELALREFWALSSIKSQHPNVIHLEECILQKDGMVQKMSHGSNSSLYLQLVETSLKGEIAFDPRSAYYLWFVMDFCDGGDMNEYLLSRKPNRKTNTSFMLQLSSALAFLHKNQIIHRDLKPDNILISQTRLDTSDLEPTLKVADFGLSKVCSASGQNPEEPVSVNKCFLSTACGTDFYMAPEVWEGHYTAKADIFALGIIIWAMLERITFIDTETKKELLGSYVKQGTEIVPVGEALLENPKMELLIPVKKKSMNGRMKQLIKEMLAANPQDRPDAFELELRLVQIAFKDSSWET
Chain of RIPK2 (O43353 whole entry): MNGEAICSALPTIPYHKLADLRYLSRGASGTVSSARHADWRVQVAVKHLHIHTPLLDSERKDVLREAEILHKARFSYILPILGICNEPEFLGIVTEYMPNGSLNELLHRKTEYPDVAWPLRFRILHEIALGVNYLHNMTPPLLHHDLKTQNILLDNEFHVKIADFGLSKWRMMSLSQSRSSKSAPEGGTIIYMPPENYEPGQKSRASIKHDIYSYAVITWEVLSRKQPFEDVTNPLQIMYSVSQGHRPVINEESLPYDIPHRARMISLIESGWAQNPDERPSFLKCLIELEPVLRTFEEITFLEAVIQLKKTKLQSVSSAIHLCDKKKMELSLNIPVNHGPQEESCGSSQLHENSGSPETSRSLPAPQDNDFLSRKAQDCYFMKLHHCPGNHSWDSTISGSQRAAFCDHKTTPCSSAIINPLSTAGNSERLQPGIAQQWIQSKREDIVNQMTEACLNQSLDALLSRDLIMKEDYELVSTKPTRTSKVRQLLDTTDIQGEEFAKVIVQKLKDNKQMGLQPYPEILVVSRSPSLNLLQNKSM
Chain of CLK1 (P49759 whole entry): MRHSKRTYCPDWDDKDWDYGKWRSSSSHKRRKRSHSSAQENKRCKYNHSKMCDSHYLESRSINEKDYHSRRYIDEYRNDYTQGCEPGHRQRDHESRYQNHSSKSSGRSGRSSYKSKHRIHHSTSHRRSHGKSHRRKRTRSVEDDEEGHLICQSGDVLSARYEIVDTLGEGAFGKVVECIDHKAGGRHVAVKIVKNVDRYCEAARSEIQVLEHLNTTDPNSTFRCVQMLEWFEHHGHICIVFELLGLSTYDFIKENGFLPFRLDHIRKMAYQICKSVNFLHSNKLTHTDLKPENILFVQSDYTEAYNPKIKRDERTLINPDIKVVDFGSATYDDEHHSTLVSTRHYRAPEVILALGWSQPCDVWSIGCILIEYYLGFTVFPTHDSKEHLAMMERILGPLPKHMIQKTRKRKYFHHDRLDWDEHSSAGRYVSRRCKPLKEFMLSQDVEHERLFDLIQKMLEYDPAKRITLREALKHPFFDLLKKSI
Chain of MKNK2 (Q9HBH9 whole entry): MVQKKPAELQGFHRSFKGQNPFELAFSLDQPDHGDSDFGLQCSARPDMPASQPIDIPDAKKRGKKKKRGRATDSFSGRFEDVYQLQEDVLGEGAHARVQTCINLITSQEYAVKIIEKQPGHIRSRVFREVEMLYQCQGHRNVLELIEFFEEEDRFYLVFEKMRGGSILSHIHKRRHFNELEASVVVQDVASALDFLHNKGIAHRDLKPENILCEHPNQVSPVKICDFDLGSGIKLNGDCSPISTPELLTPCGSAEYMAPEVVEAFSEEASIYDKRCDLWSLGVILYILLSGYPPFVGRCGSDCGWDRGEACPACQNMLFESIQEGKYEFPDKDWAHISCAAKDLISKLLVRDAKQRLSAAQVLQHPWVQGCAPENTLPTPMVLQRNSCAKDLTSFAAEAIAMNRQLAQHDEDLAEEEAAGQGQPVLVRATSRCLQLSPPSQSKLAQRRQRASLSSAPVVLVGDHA
Chain of MAPK14 (Q16539 whole entry): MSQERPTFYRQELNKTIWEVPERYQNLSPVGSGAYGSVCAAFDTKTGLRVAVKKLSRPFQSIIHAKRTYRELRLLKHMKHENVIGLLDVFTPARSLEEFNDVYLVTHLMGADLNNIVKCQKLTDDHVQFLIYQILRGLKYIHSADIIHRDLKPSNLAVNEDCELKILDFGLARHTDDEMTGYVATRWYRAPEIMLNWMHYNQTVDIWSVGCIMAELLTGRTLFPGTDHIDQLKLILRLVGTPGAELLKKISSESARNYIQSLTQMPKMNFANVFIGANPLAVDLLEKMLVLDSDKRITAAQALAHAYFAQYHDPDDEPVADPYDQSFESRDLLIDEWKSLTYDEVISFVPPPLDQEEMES

COc1nc(N[C@H]2CC[C@H](NS(=O)(=O)CC(C)C)CC2)nc2[nH]nc(N3CCOC[C@H]3C)c12 [compound 39, N-(trans-4-((4-Methoxy-3-((R)-3-methylmorpholino)-1H-pyrazolo[3,4-d]pyrimidin-6-yl)amino)cyclohexyl)-2-methylpropane-1-sulfonamide]
IC50 (LRRK2): ≥ 20 µM
IC50 (MKNK2): ≥ 20 µM
IC50 (MAP4K3): ≥ 20 µM
IC50 (STK39): ≥ 20 µM
IC50 (RIPK2): ≥ 20 µM
IC50 (WEE1): ≥ 20 µM
IC50 (IRAK4): ≥ 20 µM
IC50 (MAP3K3): ≥ 20 µM
IC50 (NEK7): ≥ 20 µM
IC50 (DDR1): ≥ 20 µM
IC50 (CDC42BPG): ≥ 20 µM
IC50 (PDIK1L): ≥ 20 µM
IC50 (PRKG1): ≥ 20 µM
IC50 (STK38): ≥ 20 µM
IC50 (NLK): 3.5 µM
IC50 (BRSK2): ≥ 20 µM
IC50 (MAPK14): ≥ 20 µM
IC50 (CLK1): ≥ 20 µM
IC50 (RPS6KA3): ≥ 20 µM
IC50 (PAK4): ≥ 20 µM
IC50 (MAPK8): ≥ 20 µM
